This passage reports Ki and Kd results from BindingDB's records for doi:10.1016/j.chembiol.2017.01.006 (Sanford Burnham Prebys Medical Discovery Institute, 2017).

Where a SMILES comes first, the peptide text is derived from it. [ ]: non-standard residue; d: D form. Trp(5-OH) = N[C@@H](Cc1c[nH]c2ccc(O)cc12)C(=O)O; Phe(4-Cl) = N[C@@H](Cc1ccc(Cl)cc1)C(=O)O; 4Pal = N[C@@H](Cc1ccncc1)C(=O)O; Ava = NCCCCC(=O)O; GABA = NCCCC(=O)O Some results are limits rather than exact numbers.

The target in test [1] is T1, Ephrin type-A receptor 4 [29-209] (Homo sapiens, UniProt P54764).
T1 construct: 29-209
The experiment in a line: Fluorescence Polarization Assay. The following applies: pH 7.2; 25 °C. The procedure: For competitive binding assays, 1 mL of […] EphA4-LBD was pre-incubated with the tested compounds at various concentrations in 98 mL of PBS (pH 7.2) in 96-well black plates at roomtemperature for 10 min, after which 1 mL of 500 mMFITC-labeled EphA4 peptide was added to produce a final volume of […].
In general terms: In fluorescence polarisation assays a small probe gives low polarisation when free and higher when bound to something large.

Test [2] deals with T1, Ephrin type-A receptor 4 [29-209]. The experiment in a line: Isothermal Titration Calorimetry (ITC). The settings on record: pH 6.5; 27 °C. On the procedure:
(§1) The purified EphA proteins (EphA4-LBD, EphA3-LBD, and EphA2-LBD) were dissolved in 50 mM potassium phosphate buffer (pH 6.5) containing 100 mM NaCl. Compound binding was detected at 27 °C by comparing either the 2D-[15N,1H]-HSQC or 2D-[13C,1H]-HSQC spectra of 50 mMEphA4-LBD in absence and presence of compounds at 50 mM. ITC were measured with Model ITC200 from Microcal/GE Life Sciences.
A general note: In ITC the heat of successive injections is recorded.

Test [3] concerns the target T2, Ephrin type-A receptor 3 [29-207] (Homo sapiens, UniProt P29320).
T2 construct: 29-207
T2 sequence (P29320 whole entry): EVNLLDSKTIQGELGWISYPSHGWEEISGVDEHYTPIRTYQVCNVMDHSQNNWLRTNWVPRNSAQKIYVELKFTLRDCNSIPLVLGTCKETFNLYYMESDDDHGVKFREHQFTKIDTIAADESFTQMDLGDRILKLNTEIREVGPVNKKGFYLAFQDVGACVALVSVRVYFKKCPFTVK
The experiment in a line: Isothermal Titration Calorimetry (ITC). The following applies: pH 6.5; 27 °C. The procedure:
as §1

T1 sequence (P54764 29-209): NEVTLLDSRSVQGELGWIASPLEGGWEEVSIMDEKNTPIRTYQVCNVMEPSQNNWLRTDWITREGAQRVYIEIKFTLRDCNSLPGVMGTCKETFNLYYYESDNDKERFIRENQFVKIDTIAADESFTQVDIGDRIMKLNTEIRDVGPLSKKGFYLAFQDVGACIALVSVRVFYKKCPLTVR

In test [1], `NCCCC(=O)N[C@@H](Cc1c[nH]c2ccc(O)cc12)C(=O)N[C@@H](Cc1ccc(Cl)cc1)C(=O)N[C@@H](Cc1ccncc1)C(=O)NCCc1cccc2ccccc12` [123C12] displayed a Ki of 7670 nM.

`NCCC(=O)N[C@@H](Cc1c[nH]c2ccc(O)cc12)C(=O)N[C@@H](Cc1ccc(Cl)cc1)C(=O)N[C@@H](Cc1ccncc1)C(=O)N[C@H](Cc1ccncc1)C(N)=O` [120G1] had a Ki in test [1] of 14000 nM.

Molecule `NCCCC(=O)N[C@@H](Cc1c[nH]c2ccc(O)cc12)C(=O)N[C@@H](Cc1ccc(Cl)cc1)C(=O)N[C@@H](Cc1ccncc1)C(=O)NCCc1c[nH]c2ccc(Cl)cc12` [123C6] came in with a Ki in test [1] of 3140 nM.

In test [1], `NCCCC(=O)N[C@@H](Cc1c[nH]c2ccc(O)cc12)C(=O)N[C@@H](Cc1ccc(Cl)cc1)C(=O)N[C@@H](Cc1ccncc1)C(=O)NCCc1c[nH]c2ccc(F)cc12` [123C3] returned a Ki of 2220 nM.

As for `NCCC(=O)N[C@@H](Cc1c[nH]c2ccc(O)cc12)C(=O)N[C@@H](Cc1ccc(Cl)cc1)C(=O)N[C@@H](Cc1ccncc1)C(=O)N[C@H](Cc1c[nH]c2ccccc12)C(N)=O` [EphA4-LBC inhibitor, Compound 22], the affinity in test [1], expressed as Ki, was 2140 nM. In addition, in test [2], the Kd is 1200 nM.

The molecule `NCCCC(=O)N[C@@H](Cc1c[nH]c2ccc(O)cc12)C(=O)N[C@@H](Cc1ccc(Cl)cc1)C(=O)N[C@@H](Cc1ccncc1)C(=O)N[C@H](Cc1c[nH]c2ccccc12)C(N)=O` [120H10] (H-[GABA][Trp(5-OH)][Phe(4-Cl)][4Pal][dW]-NH2) came in with a Ki in test [1] of 960 nM.

With `CC(C)(N)C(C)(C)C(=O)N[C@@H](Cc1c[nH]c2ccc(O)cc12)C(=O)N[C@@H](Cc1ccc(Cl)cc1)C(=O)N[C@@H](Cc1ccncc1)C(=O)N[C@H](Cc1ccncc1)C(N)=O` [120G2], the Ki in test [1] was above 100000 nM.

`NCCCC(=O)N[C@@H](Cc1c[nH]c2ccc(O)cc12)C(=O)N[C@@H](Cc1ccc(Cl)cc1)C(=O)N[C@@H](Cc1ccncc1)C(=O)NCCc1c[nH]c2ccc(O)cc12` [123C5] registered an inhibition constant Ki in test [1] of 2570 nM. In test [2], this molecule displayed a Kd of 2200 nM.

As to `COc1ccc2c(CCNC(=O)[C@H](Cc3ccncc3)NC(=O)[C@H](Cc3ccc(Cl)cc3)NC(=O)[C@H](Cc3c[nH]c4ccc(O)cc34)NC(=O)CCCN)c[nH]c2c1` [123C7], the Ki in test [1] was 1590 nM. In test [2], this molecule gave a Kd of 540 nM.

With `NCCCCC(=O)N[C@@H](Cc1c[nH]c2ccc(O)cc12)C(=O)N[C@@H](Cc1ccc(Cl)cc1)C(=O)N[C@@H](Cc1ccncc1)C(=O)N[C@H](Cc1c[nH]c2ccccc12)C(N)=O` [123B1] (H-[Ava][Trp(5-OH)][Phe(4-Cl)][4Pal][dW]-NH2), the affinity in test [1], expressed as Ki, was 3040 nM.

Take `NCCCC(=O)N[C@@H](Cc1c[nH]c2ccc(O)cc12)C(=O)N[C@@H](Cc1ccc(Cl)cc1)C(=O)N[C@@H](Cc1ccncc1)C(=O)NCCc1c[nH]c2ccccc12` [123C2]: the inhibitory constant (Ki) in test [1] is 1590 nM. In test [2], this molecule had a Kd of 1100 nM.

With `COc1ccc2[nH]cc(CCNC(=O)[C@H](Cc3ccncc3)NC(=O)[C@H](Cc3ccc(Cl)cc3)NC(=O)[C@H](Cc3c[nH]c4ccc(O)cc34)NC(=O)CCCN)c2c1` [123C4], in test [3], binding was characterised by a dissociation constant (Kd) of 4550 nM.

As a reminder, the Ki is a measure of affinity in units of concentration, obtained from inhibition or displacement. A lower Ki goes with tighter binding. One may read the Kd as the concentration at which binding is half-saturated.
